Results as given in article PMC6696415, “Supersaturation Potential of Amorphous Active Pharmaceutical Ingredients after Long-Term Storage” (Molecules, 2019).

Tests used:
[1] = In vitro supersaturation under non-sink conditions (µDISS Profiler, tenfold supersaturation ratio, spray-dried solids); format: physicochemical; conditions: for RAUC (AUC ratio spray-dried/crystalline) / RCmax,app (Cmax,app ratio spray-dried/crystalline): tenfold supersaturation ratio, phosphate buffer pH 6.5, 37 °C, 60 min; for Ratio AUC (RAUC) / Ratio Cmax (RCmax,app): pH 6.5, 37 °C
Experimental: The protocol is described in Edueng et al.. In short, the experiment was initiated by constructing a standard curve (R^2 ≥ 0.97) covering the possible concentrations attained from the supersaturation. […] For this purpose, a small-scale dissolution apparatus, the µDISS Profiler (pION Inc., Billerica, MA, USA), was used. The temperature and stirring rate were maintained at 37 °C and 100 rpm, respectively, and the supersaturation behavior was monitored for 60 min. The experiments were conducted in triplicate for each sample type.
The effects of physical aging and/or crystallization upon storage on the performance at tenfold supersaturation were assessed on the basis of the following parameters: (i) the apparent maximum concentration achieved (Cmax,app); (ii) the area under the curve (AUC); and (iii) the crystallization rate constant (k) (see Figure 9). Cmax,app refers to the maximum supersaturation concentration attained by dissolving amorphous solid in the medium before a decline in concentration was observed. […] The crystallization rate constant (k) defines the rate at which a decrease in concentration was observed. It gives an indication of the crystallization rate upon dissolution and is expressed as the reciprocal of the x-axis time units.
These three parameters were determined using GraphPad Prism version 8.1.0 for Windows (GraphPad Software, San Diego, CA, USA). Cmax,app was obtained by determining descriptive statistics of the tabulated dissolution data. It corresponds to the maximum value or highest point in the dissolution data (referred to as “maximum” in the Graphpad software). The AUC was computed based on the trapezoidal rule. The Cmax,app and AUC of the fresh and the aged/crystallized spray-dried samples were divided by the Cmax,app and AUC of the crystalline samples to obtain the ratios of both parameters (see Equations (1) and (2)). The ratios were then referred to as RCmax,app and RAUC, respectively. The crystallization was approximated following first-order kinetics, leading to Equation (3). The k value was determined by performing a nonlinear curve fitting of Equation (3) from the time point of Cmax,app of the supersaturation profiles of the samples using the same software. (1) RCmax,app=Cmax,SD/Cmax,cryst (2) RAUC=AUCSD/AUCcryst (3) C(t)=(C0−C∞)·e^−k·t+C∞
In Equation (3), C0 is the fitted concentration at t = 0, C∞ is the estimated concentration at infinite time, and k is the rate constant. In our study, the concentration is expressed in µg/mL while k is expressed in min^−1.

[2] = Physical stability study of spray-dried amorphous APIs stored at 75% RH, 25 °C (solid state by Raman, MDSC, PXRD); format: physicochemical; conditions: for Estimated Amorphous Content at Day 168 / Crystal Growth / Crystallization Initiation Propensity / Time to Complete Crystallization / Time to Start Crystallization: 75% RH at 25 °C; for Estimated Amorphous Content at Day 168: semi-quantitative Raman analysis; for Stability for 168 Days at 75% RH / Crystal Growth / Crystallization Initiation Propensity / Time to Complete Crystallization / Time to Start Crystallization: spray-dried amorphous API; for Stability for 168 Days at 75% RH: 25 °C; for Time to Complete Crystallization / Time to Start Crystallization: up to 168 days
Experimental: The amorphous solids were prepared by spray-drying. In short, solutions containing the APIs of interest were prepared by dissolving the crystalline powder in either ethanol, acetone, or a mixture of 90:10 (% w/w) ethanol/acetone prior to spray-drying. Any unwanted debris and particulate contaminants were removed by filtration (0.45 µm pore size). Thereafter, the solutions were spray-dried using a Büchi B-290-Mini Spray Dryer with an inert loop (Büchi Laboratoriums, Flawil, Switzerland) according to the processing parameters previously described by Edueng et al.. After spray-drying, the collected solids were divided and kept in two different wide-mouth aluminum containers. These open containers were placed in a vacuumed desiccator overnight to remove any residual solvent. The vacuum-dried solids were subsequently characterized with different solid-state analytical methods, studied for their supersaturation behavior, and stored in the stability chamber for 168 days (6 months). Following the overnight vacuum-drying, the spray-dried materials were placed in a stability chamber with a 75% relative humidity level and constant temperature of 25 °C. The samples were stored in open wide-mouth aluminum containers. Samples were withdrawn from the stability chamber at 1, 2, 7, 14, 28, 84, and 168 day(s) for the solid-state analyses. These analyses monitored the physical stability of the amorphous API, and the supersaturation study investigated the impact of solid-state changes on the supersaturation potential and crystallization kinetics. The preparation of these materials and the physical stability protocol are described in detail in Edueng et al..
A Twin-Twin (Bruker, Coventry, UK) measuring in Bragg–Brentano geometry and equipped with a sample rotator was used to collect the X-ray diffractograms of the unprocessed crystalline and freshly spray-dried APIs. The solid samples were gently ground with a mortar and pestle when the powder was too coarse. Thereafter, they were placed on silicon sample holders which rotated at 40 rpm during the measurement. The X-ray source was a rotating copper anode with an accelerating voltage of 40 kV and current of 40 mA. The emitted Cu Kα radiation (λ = 1.54 Å) was used in the measurements. A diffraction pattern in the 2Ө range between 5° and 40° was collected at a scanning step of 0.01° and 0.3 s exposure time at each step. Primary and secondary divergence slits of 0.40 and 2.48 mm, respectively, were used. Since this technique provides a more direct interpretation regarding the amorphous and/or crystalline content of samples, it was used to ensure that the spray-dried APIs were fully amorphous prior to the initiation of other analyses. Based on this information, the reference Raman spectra for the fully amorphous and fully crystalline samples of each compound could be established.
Modulated differential scanning calorimetry (MDSC) was performed to identify and monitor the solid-state form changes of the solids (amorphous, crystalline, or a mixture of both) and to determine the temperatures of glass transition (Tg), crystallization (Tc), and melting (Tm). Approximately 1–5 mg of sample was weighed and transferred into standard aluminum pans. The lids were pin-holed to allow evaporation of any solvent or moisture. Depending on the Tg, the samples were equilibrated at either −70 °C or 0 °C to allow for at least a 20 °C baseline prior to the Tg measurement, followed by heating up to 20–30 °C above the Tm at 3 °C/min and a temperature modulation of ±1 °C every 60 s. Analyses and integrations of the thermograms were performed using TA Instruments Universal Analysis 2000 for Windows (Version 4.5A, Sollentuna, Sweden) software.
In addition to MDSC, the samples were examined by Raman spectroscopy using a Rxn-2 Hybrid Raman Spectrometer (Kaiser Optical System Inc., Ann Arbor, MI, USA). […]

[3] = aged and/or crystallized spray-dried (SD Tn, stored at 75% RH)
[4] = spray-dried samples (fresh and aged), as summarised in text from Figures 2 and 3
[5] = 2-day sample (SD T2D; 23% crystalline) stored at 75% RH
[6] = 2-day-old sample containing 23% crystallinity
[7] = 7-day sample (SD T7D; completely crystalline) stored at 75% RH

Row | Structure (SMILES) | RAUC (AUC ratio spray-dried/crystalline) [1, 3] | RCmax,app (Cmax,app ratio spray-dried/crystalline) [1, 3] | RAUC (AUC ratio spray-dried/crystalline) ([1]; freshly spray-dried (SD T0)) | RCmax,app (Cmax,app ratio spray-dried/crystalline) ([1]; freshly spray-dried (SD T0)) | Estimated Amorphous Content at Day 168 [2] [%] | Stability for 168 Days at 75% RH [2] | Crystal Growth [2] | Crystallization Initiation Propensity [2] | Time to Complete Crystallization [2] [days] | Time to Start Crystallization [2] [days] | other results
1 | NS(=O)(=O)c1cc2c(cc1Cl)NCNS2(=O)=O [Hydrochlorothiazide, hydrochlorothiazide] |  |  |  |  | 0 | Low | Rapid | High | 1 | 1 | 
2 | C[C@]12CCC(=O)C=C1CC[C@@H]1[C@@H]2[C@@H](O)C[C@@]2(C)[C@H]1CC[C@]2(O)C(=O)CO [Hydrocortisone, hydrocortisone] |  |  |  |  | ~89 | Moderate | Slow | High |  | 1 | Estimated crystalline content ([2]; after 168 days at 75% RH): 11%
3 | CC(=O)N1CCN(c2ccc(OCC3COC(Cn4ccnc4)(c4ccc(Cl)cc4Cl)O3)cc2)CC1 (centres unmarked) [Ketoconazole, ketoconazole] | 0.8 | 1.1 | 1.6 | 2.0 | 0 | Low | Rapid | High | 7 | 1 | Ratio AUC (RAUC) [1, 5]: 0.7; Ratio Cmax (RCmax,app) [1, 5]: 0.9; Decrease of AUC ratio versus fresh sample [1, 6]: 50%; Decrease of Cmax ratio (Cmax,app) versus fresh sample [1, 6]: 50%; Ratio AUC (RAUC) [1, 7]: 0.8; Ratio Cmax (RCmax,app) [1, 7]: 1.1; Decrease of RCmax,app versus fresh sample ([1]; completely crystallized spray-dried sample): 50%; Estimated crystalline content ([2]; 2-day sample (T2D) at 75% RH): 23%
4 | Nc1ccc(S(=O)(=O)Nc2nccs2)cc1 [Sulfathiazole, sulfathiazole] | 1.5 | 1.5 | 1.5 | 1.6 | 0 | Low | Rapid | High | 1 | 1 | 

Continued, in another order:

Row | RAUC (AUC ratio spray-dried/crystalline) [1, 3] | RCmax,app (Cmax,app ratio spray-dried/crystalline) [1, 3] | RAUC (AUC ratio spray-dried/crystalline) ([1]; freshly spray-dried (SD T0)) | RCmax,app (Cmax,app ratio spray-dried/crystalline) ([1]; freshly spray-dried (SD T0)) | Estimated Amorphous Content at Day 168 [2] [%] | Stability for 168 Days at 75% RH [2] | Crystal Growth [2] | Crystallization Initiation Propensity [2] | Time to Complete Crystallization [2] [days] | Time to Start Crystallization [2] [days] | Structure (SMILES) | other results
5 | 4.4 | 7.6 | 4.1 | 7.2 | 94 | Moderate | Slow | High | >168 | 1 | COc1ccc(Cl)cc1C(=O)NCCc1ccc(S(=O)(=O)NC(=O)NC2CCCCC2)cc1 [Glibenclamide, glibenclamide] | RAUC, times higher than the crystalline counterparts [1, 4]: ~4 times; RCmax,app, times higher than the crystalline counterparts [1, 4]: approximately 7 times; Estimated Amorphous Content at Day 168 ([2]; listed as glibenclamide): approximately 94%; Estimated crystalline content ([2]; after 168 days at 75% RH): 6%
6 | 2.1 | 2.5 | 1.9 | 2.3 | 100 | High |  | Low | >168 | >168 | CC1Cc2ccccc2N1NC(=O)c1ccc(Cl)c(S(N)(=O)=O)c1 (centres unmarked) [Indapamide, indapamide] | Time to Start Crystallization ([2]; listed as indapamide): ≥ 168 days
7 | 1.8 | 2.8 | 1.5 | 2.8 | 100 | High |  | Low | >168 | >168 | Cc1ccccc1N1C(=O)c2cc(S(N)(=O)=O)c(Cl)cc2NC1C (centres unmarked) [Metolazone, metolazone] | Time to Start Crystallization ([2]; listed as metolazone): ≥ 168 days
